Reference: patent US8247170B2, “Detection of penicillin tolerance in Group B Streptococcus: single nucleotide polymorphisms in penicillin binding protein 4” (priority 2008, dated 2012)

Test system: GBS laboratory strains
Experiment: MBC90:MIC90 ratio method of determining antibiotic tolerance
Format: cell-based, Group B Streptococcus
Conditions: for MBC / MIC / MIC90: Streptococcus; for MBC: 24 h, ≧90% non-viable cells, plate counts after 24 h antibiotic; for MIC: ≧90% growth-inhibited, OD600; for MIC90: for GBS, as stated under culture conditions
Procedure: The inventors ascertained the incidence of antibiotic tolerance in GBS clinical isolates collected from cervicovaginal-rectal swabs, by investigating cell wall inhibitors used to eliminate GBS colonization in pregnant women before delivery as stated by the CDC guidelines. A ratio of the minimum bactericidal concentration (MBC) over minimum inhibitory concentration (MIC) after 24 h of antibiotic incubation or by determining quantitative kill curves has been used to define antibiotic tolerance previously.
The MBC:MIC ratio was calculated for laboratory strains using three β-lactam antibiotics (Penicillin G, Ampicillin, and Cefazolin) and a glycopeptide antibiotic (Vancomycin) (Table 1). Early-log phase cultures of GBS were treated with the individual antibiotics at a concentration of 0.25 to 512×MIC90. The optical density (OD600) of antibiotic treated cultures was used to determine the MIC90 after 24 h and a cell count was used to determine their MBC90. Susceptible, tolerant and intermediate strains were defined by their MBC:MIC ratio of ≦2:1, ≧32:1 and 4:1-16:1 respectively. […] The ratios characterized GBS strains A909 and 2603V/R as Susceptible, O90R as Tolerant, and NEM316 as Intermediate to Penicillin, Ampicillin, and Cefazolin. All four strains were susceptible to Vancomycin.
(I) Bacterial Strains and Culture Conditions. GBS strains A909 (serotype IA), 515 (serotype IA), NEM316 (serotype III), COHI (serotype III), 2603V/R (serotype V) and O90R (non-typable) were used in this study. E. coli Top10 cells were used for the recombination experiments. GBS was cultured in Todd Hewitt broth (THB) or Tryptic Soy 5% sheep blood (TS) media and E. coli in Luria-broth (LB) medium or agar. Antibiotics were used at the following concentrations: for GBS—penicillin G (MIC90 0.06 μg ml^−1), ampicillin (MIC90 0.12 μg ml^−1), vancomycin (MIC90 2 μg ml^−1), cefazolin (MIC90 1 μg ml^−1) and chloramphenicol (5 μg ml^−1); for E. coli—ampicillin (50 μg ml^−1) and chloramphenicol (5 μg ml^−1). Both GBS and E. coli cultures were grown at 37° C. (II) Tolerance Using the MBC:MIC Ratio Method. Three GBS laboratory strains (i.e., A909, NEM316, and O90R) were cultured overnight for 18 h at 37° C. in THB. Subcultures in THB were subsequently grown to exponential phase (OD600˜0.3; i.e. 5×10^5 cfu/ml) at 37° C. Cell cultures were then exposed to different concentrations of antibiotics (Penicillin G, Ampicillin, Cefozolin or Vancomycin). […] Cell cultures were dispersed every 18 h before OD600 was measured to determine the lowest concentration of antibiotic with 90% growth inhibition (MIC90). Antibiotic treated cells (8 μl) from each well were re-suspended into PBS (100 μl) and plated (54 μl) on TS agar plates and allowed to grow for an additional 24 h at 37° C. Cell count was performed to determine the lowest concentration of antibiotic with 90% killing of original inoculums (MBC90). (III) Penicillin Killing and Regrowth Tolerance Assay by Microbroth Dilution. Three GBS laboratory strains (i.e., A909, NEM316, and O90R) were cultured overnight for 18 h at 37° C. in THB. Subcultures in THB were subsequently grown to exponential phase (OD600˜0.3) at 37° C. Cell cultures were then exposed to different concentrations of Penicillin G (Sigma, St. Louis, Mo.). […] Cell cultures were dispersed. A 1:20 dilution of cells was re-plated into new wells containing fresh THB with 500 U Penase (to degrade residual penicillin). Cell cultures were allowed to re-grow for an additional 24 h at 37° C. before the OD600 was measured. (IV) Measuring Cell Viability by Determining ATP Concentration. GBS strains were cultured for 18 h at 37° C. in THB. These cells were inoculated into fresh THB and subsequently allowed to grow to exponential phase (OD600 0.25-0.3) at 37° C. One ml of each culture was centrifuged at 5,000×g for 4 min. The cell pellet was re-suspended in ATP-free water. […]

With CC1(C)S[C@@H]2[C@H](NC(=O)[C@H](N)c3ccccc3)C(=O)N2[C@H]1C(=O)O [Ampicillin] the “Ratio (MBC90:MIC90)” value (GBS strain 2603V/R) was 1, the “Ratio (MBC90:MIC90)” value (GBS strain A909) was 1 and the “Ratio (MBC90:MIC90)” value (GBS strain NEM316) was 4. The MBC (GBS strain 2603V/R) was 0.48 µg/mL, the MBC (GBS strain A909) was 0.48 µg/mL and the MBC (GBS strain NEM316) was 1.92 µg/mL. It also gave an MBC (GBS strain O90R) of 15.4 µg/mL, an MIC (GBS strain 2603V/R) of 0.48 µg/mL and an MIC (GBS strain A909) of 0.48 µg/mL. The MIC (GBS strain NEM316) was 0.48 µg/mL, the MIC (GBS strain O90R) was 0.96 µg/mL and the MIC90 was 0.12 µg/mL.
For Cc1nnc(SCC2=C(C(=O)O)N3C(=O)[C@@H](NC(=O)Cn4cnnn4)[C@H]3SC2)s1 [Cefazolin], the “Ratio (MBC90:MIC90)” value (GBS strain 2603V/R) was 2, the “Ratio (MBC90:MIC90)” value (GBS strain A909) was 1 and the “Ratio (MBC90:MIC90)” value (GBS strain NEM316) was 16. The “Ratio (MBC90:MIC90)” value (GBS strain O90R) was 32, the MBC (GBS strain 2603V/R) was 0.39 µg/mL and the MBC (GBS strain A909) was 0.19 µg/mL. It also gave an MBC (GBS strain NEM316) of 3.12 µg/mL, an MBC (GBS strain O90R) of 12.5 µg/mL and an MIC (GBS strain 2603V/R) of 0.19 µg/mL. It also gave an MIC (GBS strain A909) of 0.19 µg/mL, an MIC (GBS strain NEM316) of 0.19 µg/mL and an MIC (GBS strain O90R) of 0.39 µg/mL. For the same compound, the MIC90 was 1 µg/mL.
For CN[C@H](CC(C)C)C(=O)N[C@H]1C(=O)N[C@@H](CC(N)=O)C(=O)N[C@H]2C(=O)N[C@H]3C(=O)N[C@H](C(=O)N[C@H](C(=O)O)c4cc(O)cc(O)c4-c4cc3ccc4O)[C@H](O)c3ccc(c(Cl)c3)Oc3cc2cc(c3O[C@@H]2O[C@H](CO)[C@@H](O)[C@H](O)[C@H]2O[C@H]2C[C@](C)(N)[C@H](O)[C@H](C)O2)Oc2ccc(cc2Cl)[C@H]1O [Vancomycin], the “Ratio (MBC90:MIC90)” value (GBS strain 2603V/R) was 1, the “Ratio (MBC90:MIC90)” value (GBS strain A909) was 1 and the “Ratio (MBC90:MIC90)” value (GBS strain NEM316) was 1. The “Ratio (MBC90:MIC90)” value (GBS strain O90R) was 1, the MBC (GBS strain 2603V/R) was 4 µg/mL and the MBC (GBS strain A909) was 4 µg/mL. For the same compound, the MBC (GBS strain NEM316) was 4 µg/mL, the MBC (GBS strain O90R) was 4 µg/mL and the MIC (GBS strain 2603V/R) was 4 µg/mL. It also gave an MIC (GBS strain A909) of 4 µg/mL, an MIC (GBS strain NEM316) of 4 µg/mL and an MIC (GBS strain O90R) of 4 µg/mL. For the same compound, the MIC90 was 2 µg/mL.
